8 compounds from ChEMBL document CHEMBL1201862, “PubChem BioAssay data set” (2004) can be followed below.

Assay in all cases: inhibition of tumour cell growth, NCI panel, 48 h
The test system of test [1] is T47D.
For test [2], the system named is HOP-92.
In test [3] the test system is ACHN.
Test [4] has as its system M14.
Test [5] deals with KM12.
Test [6] concerns COLO 205.
Test [7] deals with UO-31.
The test system of test [8] is MDA-MB-231.
For test [9], the system named is OVCAR-3.
Test [10] concerns SNB-75.
The subject of test [11] is LOX IMVI.
In test [12] the test system is RPMI-8226.
The subject of test [13] is A549.
Test [14] deals with SN12C.
Test [15] has as its system TK-10.
Test [16] deals with K562.
For test [17], the system named is A498.
Test [18] deals with Malme-3M.
The subject of test [19] is SK-MEL-28.

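Five compound concentrations were applied to cells in 96-well plates for 48 hours; endpoints were derived by simple linear interpolation of the resulting dose-response curve. GI50: concentration for 50% inhibition of growth.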 The source made the active and inactive calls. Rule as the data show it: active = GI50 up to about 1.1 µM and inactive = higher.

For `COC(=O)c1cc2c3c(c1)Oc1cc(C(=O)OC)cc4c1C3c1c(cc(C(=O)OC)cc1O4)O2`, the GI50 is 20 µM (inactive) in test [1]; 19.4 µM (inactive) in test [2]; 11.7 µM (inactive) in test [3]; 26.6 µM (inactive) in test [4]; 10.1 µM (inactive) in test [5]; 23.7 µM (inactive) in [6]. Besides, the GI50 is 21 µM (inactive) in [7]; 17.1 µM (inactive) in test [8]; 10.3 µM (inactive) in test [9]; 5.81 µM (inactive) in test [10]; 5.92 µM (inactive) in test [11]; 6.44 µM (inactive) in [12]. Further, the GI50 in [13] is 12.6 µM (inactive); in test [14], 32.7 µM (inactive); in [15], 15.3 µM (inactive); in test [16], 11.5 µM (inactive); in test [17], > 76.2 µM (inactive); in test [18], 8.99 µM (inactive). For the same compound, the GI50 in test [19] was 34 µM (inactive).

With `c1ccc2c(c1)CN1CCCC1CN2` (configuration not stated), the GI50 in [1], in [2], in test [3], in [4], in test [5] and in test [6] was > 100 µM (inactive) throughout. Also, the GI50 in [7], in test [8], in test [9], in [10], in [11] and in test [12] was > 100 µM (inactive) in each case. Also, the GI50 in test [13], in test [14], in test [15], in test [16], in test [17] and in test [18] was > 100 µM (inactive) throughout. For the same compound, in test [19], the GI50 is > 100 µM (inactive).

As to `NC(Cc1ccccc1)c1nn[nH]n1` (configuration not stated), the GI50 in test [1], in [2], in test [3], in [4], in [5] and in test [6] was > 100 µM (inactive) throughout. For the same compound, the GI50 in [7], in test [8], in [9], in [10], in test [11] and in test [12] was > 100 µM (inactive) throughout. Besides, the GI50 in test [13] is > 100 µM (inactive); in test [14] it was > 100 µM (inactive); in test [15], > 100 µM (inactive); in test [16] it was 0.0476 µM (active); in [17], > 100 µM (inactive); in test [18] it was > 100 µM (inactive). Moreover, the GI50 in test [19] was > 100 µM (inactive).

For the compound `O=C(N/S(=N/S(=O)(=O)c1ccc(Br)cc1)C(Cl)(Cl)Cl)c1ccccc1` (configuration not stated), the GI50 is > 100 µM (inactive) in [1]; 26.2 µM (inactive) in test [2]; > 100 µM (inactive) in [3]; > 100 µM (inactive) in test [4]; > 100 µM (inactive) in test [5]; > 100 µM (inactive) in test [6]. In addition, the GI50 in [7] is > 100 µM (inactive); in test [8], > 100 µM (inactive); in test [9] it was > 100 µM (inactive); in [10], 23.3 µM (inactive); in test [11] it was > 100 µM (inactive); in test [12] it was > 100 µM (inactive). Besides, the GI50 in test [13], in test [14], in test [15], in test [16], in [17] and in test [18] was > 100 µM (inactive) each time. In addition, the GI50 in test [19] is > 100 µM (inactive).

`NC(=O)c1cc2ccc(O)cc2o/c1=N/c1ccccc1`: the GI50 in test [1] was 16 µM (inactive); in [2], 34 µM (inactive); in test [3], 24.9 µM (inactive); in test [4], 29.5 µM (inactive); in [5], 27.2 µM (inactive); in test [6], 18.5 µM (inactive). Also, the GI50 in test [7] is 3.6 µM (inactive); in test [8] it was 67.8 µM (inactive); in [9] it was 35.2 µM (inactive); in test [10], 13.5 µM (inactive); in [11], 24 µM (inactive); in [12], 20.7 µM (inactive). Also, the GI50 is 25.6 µM (inactive) in test [13]; 22.3 µM (inactive) in test [14]; 27.1 µM (inactive) in [15]; 34.5 µM (inactive) in [16]; 16.3 µM (inactive) in test [17]; 50.8 µM (inactive) in test [18]. Further, the GI50 in test [19] was 35.6 µM (inactive).

Turning to `Cc1nc(-n2nc(-c3ccccc3)cc2-c2ccccc2)sc1C(=O)/C=C/c1ccc([N+](=O)[O-])cc1`, the GI50 is 9.25 µM (inactive) in [1]; > 56.5 µM (inactive) in [2]; 26.5 µM (inactive) in [3]; 27.6 µM (inactive) in [4]; 9.29 µM (inactive) in [5]; 24.4 µM (inactive) in test [6]. Further, the GI50 is 14 µM (inactive) in test [7]; 33.1 µM (inactive) in test [8]; 10.4 µM (inactive) in test [9]; 2.69 µM (inactive) in test [10]; 15.7 µM (inactive) in test [11]; 10.5 µM (inactive) in test [12]. Also, the GI50 was > 59.7 µM (inactive) in test [13]; 29.1 µM (inactive) in test [14]; 41.5 µM (inactive) in test [15]; 14.2 µM (inactive) in test [16]; > 43.8 µM (inactive) in test [17]; 34.2 µM (inactive) in test [18]. Also, in test [19], the GI50 is 28.7 µM (inactive).

On to `OCCn1cnc2c(SCc3ccccc3)ncnc21`, for which the GI50 in test [1] is > 100 µM (inactive); in test [2], > 100 µM (inactive); in [3], > 100 µM (inactive); in test [4] it was > 100 µM (inactive); in [5], > 100 µM (inactive); in [6] it was 95.5 µM (inactive). The GI50 in test [7] is > 100 µM (inactive); in test [8], > 100 µM (inactive); in test [9] it was > 100 µM (inactive); in [10], > 100 µM (inactive); in [11] it was 61.1 µM (inactive); in [12], 97.5 µM (inactive). Besides, the GI50 in test [13] is > 100 µM (inactive); in test [14] it was > 100 µM (inactive); in [15], > 100 µM (inactive); in test [16] it was 79.4 µM (inactive); in test [17], > 100 µM (inactive); in test [18], > 100 µM (inactive). The GI50 in test [19] was > 100 µM (inactive).

On to `COc1cc(OC)c(C2(c3c(OC(C)C)c(=O)c3=O)SCCCS2)cc1OC`, for which the GI50 in test [1], in test [2], in [3], in [4], in test [5] and in test [6] was > 100 µM (inactive) each time. Moreover, the GI50 in test [7], in [8], in [9], in [10], in test [11] and in test [12] was > 100 µM (inactive) throughout. The GI50 in test [13], in [14], in test [15], in test [16], in [17] and in test [18] was > 100 µM (inactive) in each case. Also, the GI50 in test [19] was > 100 µM (inactive).
